Square brackets hold non-standard residues; d marks the D form. Ends that are not written are not given here. pGlu = O=C1CC[C@@H](C(=O)O)N1; Nle = CCCC[C@H](N)C(=O)O

For one assay, the target named is T1, MC1-R (Mus musculus, UniProt Q01727).
T1 construct: membranes prepared from hMC3-R, hMC4-R, hMC5-R, and B-16 mouse melanoma cells (containing MC1-R); endogenous in cells; host or cells: B-16 mouse melanoma cells (membranes)
Kind of assay: competitive inhibition binding assay, 125I-NDP-alpha-MSH, B-16 mouse melanoma cell membranes. To be noted: 1 μM test peptide; 0.4 nM 125I-NDP-alpha-MSH; B-16 mouse melanoma cell membranes. The protocol: (§1) The competitive inhibition binding assay was conducted using membranes prepared from hMC3-R, hMC4-R, hMC5-R, and B-16 mouse melanoma cells (containing MC1-R) using 0.4 nM ^125I-NDP-alpha-MSH (New England Nuclear, Boston, Mass., USA) in 50 mM HEPES buffer containing 1 mM MgCl2, 2 mM CaCl2, and 5 mM KCl, at pH 7.2. The assay tube also contained a chosen concentration of the test peptide of this invention complexed to a rhenium metal ion, typically at a 1 μM concentration, for determining its efficacy in inhibiting the binding of ^125I-NDP-alpha-MSH to its receptor. Non-specific binding was measured by complete inhibition of binding of ^125I-NDP-alpha-MSH in the assay with the presence of 1 μM alpha-MSH. Incubation was for 90 minutes at room temperature, after which the assay mixture was filtered and the membranes washed three times with ice cold buffer. The filter was dried and counted in a gamma counter for remaining radioactivity bound to the membranes. 100% specific binding was defined as the difference in radioactivity (cpm) bound to cell membranes in the absence and presence of 1 μM alpha-MSH. The cpm obtained in presence of test compounds were normalized with respect to 100% specific binding to determine the percent inhibition of ^125I-NDP-alpha MSH binding. Each assay was conducted in triplicate and the actual mean valves are described.

For the next assay, the target named is T2, hMC3-R (Homo sapiens, UniProt P41968).
T2 construct: expressed in transfected cells
T2 sequence (P41968 whole entry): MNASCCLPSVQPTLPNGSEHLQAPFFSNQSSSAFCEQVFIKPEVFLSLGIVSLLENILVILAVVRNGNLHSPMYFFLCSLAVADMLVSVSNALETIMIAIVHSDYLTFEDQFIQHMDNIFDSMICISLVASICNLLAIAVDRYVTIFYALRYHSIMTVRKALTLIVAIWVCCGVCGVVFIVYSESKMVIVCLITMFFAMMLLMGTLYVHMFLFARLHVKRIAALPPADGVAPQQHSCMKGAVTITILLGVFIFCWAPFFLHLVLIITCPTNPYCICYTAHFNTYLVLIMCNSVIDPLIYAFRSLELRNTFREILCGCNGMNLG
Kind of assay: competitive inhibition binding assay, 125I-NDP-alpha-MSH, hMC3-R membranes. To be noted: 1 μM test peptide; 0.4 nM 125I-NDP-alpha-MSH; hMC3-R membranes. The protocol: as §1

The next assay deals with T3, hMC4-R (Homo sapiens, UniProt P32245).
T3 construct: expressed in transfected cells
T3 sequence (P32245 whole entry): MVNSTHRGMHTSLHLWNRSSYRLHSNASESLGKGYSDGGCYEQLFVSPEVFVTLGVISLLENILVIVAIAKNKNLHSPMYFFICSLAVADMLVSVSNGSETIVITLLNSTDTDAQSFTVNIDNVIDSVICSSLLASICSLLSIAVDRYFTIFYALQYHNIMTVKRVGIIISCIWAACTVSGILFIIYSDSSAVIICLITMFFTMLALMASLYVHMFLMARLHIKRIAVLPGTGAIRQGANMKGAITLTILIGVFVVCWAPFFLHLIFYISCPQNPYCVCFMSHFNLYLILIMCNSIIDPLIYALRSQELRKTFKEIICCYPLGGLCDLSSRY
Kind of assay: competitive inhibition binding assay, 125I-NDP-alpha-MSH, hMC4-R membranes. To be noted: 1 μM test peptide; 0.4 nM 125I-NDP-alpha-MSH; hMC4-R membranes. The protocol:
as §1

A further assay concerns the target T4, hMC5-R (Homo sapiens, UniProt P33032).
T4 construct: expressed in transfected cells
Kind of assay: competitive inhibition binding assay, 125I-NDP-alpha-MSH, hMC5-R membranes. The settings on record: 1 μM test peptide; 0.4 nM 125I-NDP-alpha-MSH; hMC5-R membranes. The protocol: as §1

In another assay the test system is bombesin receptor. Kind of assay: competitive binding assay, 125I-Bombesin, rat brain membranes. To be noted: for % Inhibition: inhibition of 0.01 nM 125I-Bombesin binding, rat brain membranes, test concentration not given. On the procedure:
Rat brain membranes were utilized as the source of bombesin receptor. The competitive binding assay was performed using a procedure as described by Moody T W, Perk C B, Rivier J, Brown, M R. (Proc Natl Acad Sci USA. 75:5372-5376, […]) and adapted to a 96 well format. An aliquot of membranes taken in assay buffer (50 mM Tris and HCl, pH 7.4 containing 1 mg/mL BSA and 2 μg/mL bacitracin) was incubated with 0.01 nM of ^125I-Bombesin with or without varying concentrations of the test compound for 60 min at 4° C. The incubation was terminated by rapid filtration of the assay mixture, followed by washing the filters with ice-cold buffer. The filters were dried and counted in a gamma counter for retained radioactivity. Non-specific binding was measured by including 1 μM Bombesin in the assay tube. The assay was performed in triplicate and results calculated to determine percentage inhibition of the ^125I-Bombesin binding to its receptors by a test compound. The parent polypeptide is shown in Table 6, with metallopeptides having Cys inserted as shown.

T4 sequence (P33032 whole entry): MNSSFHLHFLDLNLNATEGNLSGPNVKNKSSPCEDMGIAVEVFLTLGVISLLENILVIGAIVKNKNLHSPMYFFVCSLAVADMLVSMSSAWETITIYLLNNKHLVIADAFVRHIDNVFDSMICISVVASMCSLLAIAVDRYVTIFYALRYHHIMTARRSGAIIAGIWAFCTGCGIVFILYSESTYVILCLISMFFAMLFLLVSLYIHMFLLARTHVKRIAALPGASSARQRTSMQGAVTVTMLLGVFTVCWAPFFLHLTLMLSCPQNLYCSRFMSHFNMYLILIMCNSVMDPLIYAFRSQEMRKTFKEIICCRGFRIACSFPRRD
T1 sequence (Q01727 whole entry): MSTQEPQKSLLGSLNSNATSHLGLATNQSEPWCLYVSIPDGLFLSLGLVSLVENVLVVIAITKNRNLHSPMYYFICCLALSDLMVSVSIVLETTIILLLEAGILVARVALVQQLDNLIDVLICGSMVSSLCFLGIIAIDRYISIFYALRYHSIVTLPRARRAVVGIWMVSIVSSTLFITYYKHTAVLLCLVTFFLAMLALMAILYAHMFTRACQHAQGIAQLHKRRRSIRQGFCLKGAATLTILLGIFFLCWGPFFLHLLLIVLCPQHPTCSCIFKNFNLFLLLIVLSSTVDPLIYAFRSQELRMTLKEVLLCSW

“Tyr-Val-Nle-Gly-His-Phe-Arg-Trp-Asp-Arg-Phe-Cys-NH2 (GHFRWDRFC; N-terminal Tyr-Val-Nle; C-terminal amide; printed: Gly-His-Phe-Arg-Trp-Asp-Arg-Phe-Cys-) [4-1]”: the “% Inhibition at 1 μM at Melanocortin Receptor 1” value in the assay with MC1-R is reported as 56%. Besides, the “% Inhibition at 1 μM at Melanocortin Receptor 3” value with hMC3-R was found to be 69%. In the assay with hMC4-R, the “% Inhibition at 1 μM at Melanocortin Receptor 4” value is 36%. In the assay with hMC5-R, the “% Inhibition at 1 μM at Melanocortin Receptor 5” value is 41%.

Regarding “Tyr-Val-Nle-Gly-His-D-Phe-Arg-Trp-Asp-Cys-Phe-NH2 (YV[Nle]GH[dF]RWDCF-NH2; numbers in words are those of the source; also: oxorhenium(V) N3S1 chelate complex (Re=O)) [5-2]”, the “% Inhibition at 1 μM at Melanocortin Receptor 1” value in the assay with MC1-R worked out at 95%. Moreover, the “% Inhibition at 1 μM at Melanocortin Receptor 3” value with hMC3-R is listed as 39%. For the same substance, the “% Inhibition at 1 μM at Melanocortin Receptor 4” value in the assay with hMC4-R is on record as 58%. Besides, the “% Inhibition at 1 μM at Melanocortin Receptor 5” value with hMC5-R came to 61%.

Regarding “Ala-Val-Cys-His-NH2 (AVCH-NH2; not fully specified (bridges); printed as Ala-Val-Cys-His-NH2; also: oxorhenium(V) N3S1 chelate (Re(V)=O)) [11-12]”, the “% Inhibition” value with bombesin receptor amounted to 5%.

“D-Phe-Gln-Trp-Ala-Val-Gly-Cys-His-Leu-Leu-NH2 ([dF]QWAVGCHLL-NH2; also: oxorhenium(V) N3S1 chelate via Cys (Re(V)=O)) [8-4]”: the “% Inhibition” value in the assay with bombesin receptor came out at 59%.

As for “D-Phe-Gln-Trp-Cys-Val-Gly-His-Leu-Leu-NH2 ([dF]QWCVGHLL-NH2; also: oxorhenium(V) N3S1 chelate complex (Re=O)) [9-6]”, the “% Inhibition” value in the assay on bombesin receptor was 43%.

Turning to “Ala-Val-Cys-His-Leu-Leu-NH2 (AVCHLL-NH2; not fully specified (bridges); printed as Ala-Val-Cys-His-Leu-Leu-NH2; also: oxorhenium(V) N3S1 chelate (Re(V)=O)) [11-6]”, in the assay with bombesin receptor, the “% Inhibition” value was found to be 6%.

As for “D-Phe-Gln-Trp-Cys-Ala-Val-Gly-His-Leu-Leu-NH2 ([dF]QWCAVGHLL-NH2; also: rhenium complex (oxorhenium(V) N3S1 chelate via Cys)) [8-7]”, in the assay with bombesin receptor, the “binding to bombesin receptor, in words” value was “least activity” and the “% Inhibition” value is recorded as 8%.

Turning to “Pyr-Gln-Arg-Leu-Gly-Asn-Gln-Trp-Ala-Val-Gly-His-Leu-Cys-NH2 (QRLGNQWAVGHLC; N-term pyroglutamate; C-terminal amide; rhenium complex; printed: Gln-Arg-Leu-Gly-Asn-Gln-Trp-Ala-Val-Gly-His-Leu-Cys-) [7-1]”, in the assay on bombesin receptor, the “% Inhibition” value is 73%.

“Pyr-Gln-Arg-Leu-Gly-Asn-Gln-Trp-Ala-Cys-Gly-His-Leu-Nle-NH2 (QRLGNQWACGHL; N-terminal pyroglutamate; C-terminal Nle-amide; printed: Gln-Arg-Leu-Gly-Asn-Gln-Trp-Ala-Cys-Gly-His-Leu-) [7-5]”: the “% Inhibition” value in the assay with bombesin receptor stood at 61%.

Turning to “D-Phe-Gln-Trp-Ala-Val-Gly-His-Leu-Leu-Cys-NH2 ([dF]QWAVGHLLC-NH2; also: rhenium complex (oxorhenium(V) N3S1 chelate via Cys)) [8-1]”, in the assay with bombesin receptor, the “% Inhibition” value came to 39%.

Regarding “D-Phe-Gln-Trp-Ala-Val-Cys-His-Leu-Leu-NH2 ([dF]QWAVCHLL-NH2; also: Re metal complex (oxorhenium(V) N3S1 chelate via Cys)) [9-4]”, the “% Inhibition” value with bombesin receptor is reported as 75%.

Turning to “Pyr-Gln-Arg-Leu-Gly-Asn-Gln-Trp-Ala-Val-Gly-His-Leu-Cys-Nle-NH2 (QRLGNQWAVGHLC; N-term pyroglutamate; Nle-NH2; rhenium complex; printed: Gln-Arg-Leu-Gly-Asn-Gln-Trp-Ala-Val-Gly-His-Leu-Cys-) [6-2]”, in the assay with bombesin receptor, the “% Inhibition” value was 91%.

On to “Pyr-Gln-Arg-Leu-Gly-Cys-Asn-Gln-Trp-Ala-Val-Gly-His-Leu-Nle-NH2 ([pGlu]QRLGCNQWAVGHL[Nle]-NH2; numbers in words are those of the source; also: rhenium complex (oxorhenium(V) N3S1 tetradentate chelate via Re=O core)) [6-10]”, for which, in the assay with bombesin receptor, the “% Inhibition” value was 93%.

For “D-Phe-Gln-Trp-D-Ala-Val-Cys-His-Leu-Leu-NH2 ([dF]QW[dA]VCHLL-NH2; numbers in words are those of the source; also: oxorhenium(V) N3S1 chelate complex (Re=O)) [10-4]”, the “% Inhibition” value in the assay with bombesin receptor came to 2%.

Consider “Pyr-Gln-Arg-Leu-Gly-Asn-Gln-Trp-Ala-Val-Gly-Cys-Leu-Nle-NH2 (QRLGNQWAVGCL; N-terminal pyroglutamate; C-terminal Nle-amide; printed: Gln-Arg-Leu-Gly-Asn-Gln-Trp-Ala-Val-Gly-Cys-Leu-) [7-3]”, for which, in the assay with bombesin receptor, the “% Inhibition” value is on record as 82%.

Take “Ala-Val-Cys-NH2 (not fully specified (bridges); printed as Ala-Val-Cys-NH2; also: oxorhenium(V) N3S1 chelate (Re(V)=O)) [11-15]”: the “% Inhibition” value with bombesin receptor worked out at 4%.

As for “Ala-Val-Cys-His-Leu-NH2 (AVCHL-NH2; not fully specified (bridges); printed as Ala-Val-Cys-His-Leu-NH2; also: oxorhenium(V) N3S1 chelate (Re(V)=O)) [11-9]”, the “% Inhibition” value with bombesin receptor was found to be 7%.

In the case of “Trp-Ala-Val-Cys-His-NH2 (WAVCH-NH2; not fully specified (bridges); printed as Trp-Ala-Val-Cys-His-NH2; also: oxorhenium(V) N3S1 chelate (Re=O) with Cys) [11-11]”, in the assay with bombesin receptor, the “% Inhibition” value is −1%.

On to [dF]QWA[dV]CHLL-NH2 [10-3], for which the “% Inhibition” value in the assay on bombesin receptor is reported as 7%.

With “D-Phe-Gln-Trp-Ala-Cys-Val-Gly-His-Leu-Leu-NH2 ([dF]QWACVGHLL-NH2; also: oxorhenium(V) N3S1 chelate via Cys (Re(V)=O)) [8-6]”, in the assay with bombesin receptor, the “binding to bombesin receptor, in words” value was “least activity” and the “% Inhibition” value worked out at 35%.

For “Pyr-Gln-Arg-Leu-Gly-Asn-Gln-Trp-Ala-Cys-Val-Gly-His-Leu-Nle-NH2 ([pGlu]QRLGNQWACVGHL[Nle]-NH2; numbers in words are those of the source; also: oxorhenium(V) N3S1 chelate (Re=O) with Cys) [6-6]”, the “% Inhibition” value with bombesin receptor was determined as 83%.

Turning to “Gln-Trp-Ala-Val-Cys-His-Leu-Leu-NH2 [11-7] (QWAVCHLL-NH2; not fully specified (bridges); printed as Gln-Trp-Ala-Val-Cys-His-Leu-Leu-NH2; also: oxorhenium(V) N3S1 chelate (Re(V)=O))”, the “% Inhibition” value in the assay with bombesin receptor is given as 5%.

As to “D-Phe-Gln-Trp-Ala-Cys-Val-His-Leu-Leu-NH2 ([dF]QWACVHLL-NH2; also: rhenium complex (oxorhenium(V) N3S1 chelate via Cys)) [12-2]”, the “% Inhibition” value in the assay with bombesin receptor came to 3%.

In the case of “D-Phe-Gln-Trp-Ala-Val-Gly-His-Leu-Cys-Leu-NH2 ([dF]QWAVGHLCL-NH2; also: rhenium complex (oxorhenium(V) N3S1 chelate via Cys)) [8-2]”, in the assay with bombesin receptor, the “% Inhibition” value is recorded as 75%.

For the substance “D-Phe-Gln-Trp-Ala-Val-D-Cys-His-Leu-Leu-NH2 (chain 1 [dF]QWAV; chain 2 [dC]HLL-NH2; not fully specified (bridges); also: chain 2 continues chain 1 in one peptide (Val-D-Cys bond), Re-peptide (rhenium complex)) [10-2]”, the “% Inhibition” value with bombesin receptor turned out to be 64%.

For the substance “D-Phe-Gln-Trp-Ala-Val-Gly-Cys-Leu-Leu-NH2 ([dF]QWAVGCLL-NH2; also: oxorhenium(V) N3S1 chelate via Cys (Re(V)=O)) [9-3]”, the “% Inhibition” value in the assay with bombesin receptor was 70%.

These data come from US7351690B2, “Knockout identification of target-specific sites in peptides” (priority 2000, dated 2008).
